What was measured:
HL-60 [1] = assay: Cell viability in TPA-induced superoxide (O2-) generation in human promyelocytic leukemia HL-60 cells, at 100 uM concentration; assay type: functional
HL-60 [2] = assay: Inhibitory activity against TPA-induced superoxide (O2-) generation in human promyelocytic leukemia HL-60 cells, at 100 uM concentration; assay type: functional

Row | Structure (SMILES) | Cell viability (HL-60 [1]) | inhibition at 100 µM (HL-60 [2])
1 | COc1cc(/C=C/C(=O)O[C@H]2[C@@H](O)[C@@H](O)[C@H](OC(=O)/C=C/c3ccc(OC(C)=O)c(OC)c3)[C@@H](O)[C@@H]2O)ccc1OC(C)=O | ~72% | ~20%
2 | COc1cc(/C=C/C(=O)O[C@H]2[C@@H](O)[C@@H](O)[C@H](OC(=O)/C=C/c3ccc(O)c(OC)c3)[C@@H](O)[C@@H]2O)ccc1O | ~80% | ~5%
3 | COc1cc(/C=C/C(=O)O[C@@H]2[C@H](O)[C@@H](O)[C@H](O)[C@@H](O)[C@@H]2OC(=O)/C=C/c2ccc(O)c(OC)c2)ccc1O | ~80% | ~20%
4 | COc1cc(/C=C/C(=O)O[C@@H]2[C@H]3OC4(CCCCC4)O[C@@H]3[C@@H](OC(=O)/C=C/c3ccc(OC(C)=O)c(OC)c3)[C@@H]3OC4(CCCCC4)O[C@H]23)ccc1OC(C)=O | ~60% | ~25%
5 | COC(=O)/C=C/c1ccc(O)c(OC)c1 | ~80% | ~2%
6 | COc1cc(/C=C/C(=O)O[C@@H]2[C@H](O)[C@H](OC(C)=O)[C@@H](OC(C)=O)[C@H](OC(C)=O)[C@H]2OC(C)=O)ccc1OC(C)=O | ~45% | ~5%
7 | COc1cc(/C=C/C(=O)O[C@@H]2[C@H]3OC4(CCCCC4)O[C@@H]3[C@@H](OC(=O)/C=C/c3ccc(O)c(OC)c3)[C@@H]3OC4(CCCCC4)O[C@H]23)ccc1O | ~60% | ~30%
8 | COc1cc(/C=C/C(=O)O)ccc1OC(C)=O | ~82% | ~2%
9 | COc1cc(/C=C/C(=O)O[C@@H]2[C@H](OC(C)=O)[C@@H](OC(C)=O)[C@H](OC(C)=O)[C@@H](OC(C)=O)[C@@H]2OC(=O)/C=C/c2ccc(OC(C)=O)c(OC)c2)ccc1OC(C)=O | ~60% | ~100%
10 | CCOC(=O)/C=C/c1ccc(O)c(OC)c1 [ETHYL FERULATE] | ~80% | ~9%
11 | COc1cc(/C=C/C(=O)O)ccc1O [FERULATE] | ~80% | ~12%

— ChEMBL document CHEMBL1133211, “Synthesis of feruloyl-myo-inositols and their inhibitory effects on superoxide generation” (2000)
